Results taken from US20090170860A1, “Use of PARP-1 Inhibitors” (PHARMA MAR, S.A., SOCIEDAD UNIPERSONAL, priority 2005, published 2009).
Like-named read-outs stand apart in the source and are kept apart here.

Experiments:
[1] = tested on: SW620 colon carcinoma cells; assay: MTS cytotoxicity assay, ET-743 with or without PARP inhibitor; type: cell-based; conditions: for IC50: 72 hours, MTS; for increased sensitization of cells to ET-743: SW620, PARP inhibitor (nicotinamide 10 mM or NU1025 100 μM) plus ET-743 versus ET-743 alone
Method: Four hours later, media containing ET-743 and the PARP inhibitor was washed out and replaced with another fixed dose of PARP inhibitor. Finally, 4 hours later, a final fixed dose of PARP inhibitor was added. 72 hours following the initial treatment, an MTS cytotoxicity assay was performed.

[2] = tested on: PARP-1 +/+ and −/− mouse embryonic fibroblasts (MEFs); assay: MTS cytotoxicity assay in PARP-1 +/+ and −/− MEFs; type: cell-based; conditions: PARP-1 −/− versus +/+ MEFs, 72 hours after treatment
Method: PARP-1 +/+and −/− mouse embryonic fibroblasts (MEFs) were seeded into 96-well plates at a density of 5,000 cells/well. After 24 hours, cells were treated with serially diluted concentrations of ET-743. 72 hours following the initial treatment, an MTS (3-(4,5-dimethylthiazol-2-yl)-5([…])-2-(4-sulfophenyl)-2H-tetrazolium) cytotoxicity assay was performed. Results were plotted as percent cellular viability versus ET-743 or Zalypsis® concentration (FIGS. 1a and 1b, respectively).

[3] = biological target: PARP (Homo sapiens, UniProt P09874); conditions: cited from earlier work
Chain of PARP (P09874 whole entry): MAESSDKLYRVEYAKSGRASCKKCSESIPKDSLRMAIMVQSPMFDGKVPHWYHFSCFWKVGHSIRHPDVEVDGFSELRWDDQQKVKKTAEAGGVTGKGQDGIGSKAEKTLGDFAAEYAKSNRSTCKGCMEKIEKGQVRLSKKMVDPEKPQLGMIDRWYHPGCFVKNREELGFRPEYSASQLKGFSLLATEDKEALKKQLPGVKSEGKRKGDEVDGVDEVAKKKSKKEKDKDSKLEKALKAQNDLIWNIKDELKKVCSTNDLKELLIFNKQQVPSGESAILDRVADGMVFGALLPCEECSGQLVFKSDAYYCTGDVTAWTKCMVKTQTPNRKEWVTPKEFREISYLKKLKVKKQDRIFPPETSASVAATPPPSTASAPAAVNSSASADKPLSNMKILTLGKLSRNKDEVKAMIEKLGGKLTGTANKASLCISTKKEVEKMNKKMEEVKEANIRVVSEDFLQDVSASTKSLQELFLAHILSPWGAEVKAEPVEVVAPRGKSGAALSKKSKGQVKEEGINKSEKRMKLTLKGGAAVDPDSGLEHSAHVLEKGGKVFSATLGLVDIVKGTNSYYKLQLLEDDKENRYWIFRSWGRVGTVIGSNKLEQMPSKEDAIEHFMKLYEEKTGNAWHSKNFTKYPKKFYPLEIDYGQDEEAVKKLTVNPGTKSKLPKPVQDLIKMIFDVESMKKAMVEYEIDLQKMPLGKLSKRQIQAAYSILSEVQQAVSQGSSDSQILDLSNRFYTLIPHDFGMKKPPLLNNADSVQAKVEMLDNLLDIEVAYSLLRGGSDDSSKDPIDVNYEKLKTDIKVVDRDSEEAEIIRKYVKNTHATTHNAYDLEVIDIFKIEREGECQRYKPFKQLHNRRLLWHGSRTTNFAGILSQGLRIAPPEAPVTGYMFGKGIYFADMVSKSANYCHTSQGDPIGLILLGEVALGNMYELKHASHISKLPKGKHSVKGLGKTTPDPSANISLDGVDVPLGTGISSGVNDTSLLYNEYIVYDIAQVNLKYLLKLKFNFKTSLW

Question: For `COc1cc2c(cc1O)CCN[C@]21CS[C@@H]2c3c(OC(C)=O)c(C)c4c(c3[C@H](COC1=O)N1[C@@H]2[C@H]2c3c(cc(C)c(OC)c3O)C[C@@H]([C@@H]1O)N2C)OCO4` [ET-743, Ecteinascidin-743], which IC50 ([1]; Homo sapiens, SW-620, SW620, ET-743 alone, NU1025 experiment, read-out: IC50 ET-743 alone (FIG. 2b)) is on record?
Answer: Its IC50 is 1.8 nM.

Question: What about the IC50 ([1]; Homo sapiens, SW-620, SW620, ET-743 alone, nicotinamide experiment, read-out: IC50 ET-743 alone (FIG. 2a)) of the same compound?
Answer: The IC50 was 2 nM.

Question: And the IC50 ([1]; Homo sapiens, SW-620, SW620, NU1025 100 μM, 2 hour pre-treatment and repeated fixed doses, read-out: IC50 ET-743 in combination with NU1025 (FIG. 2b))?
Answer: The IC50 was 0.37 nM.

Question: What about the IC50 ([1]; Homo sapiens, SW-620, SW620, nicotinamide 10 mM, 2 hour pre-treatment and repeated fixed doses, read-out: IC50 ET-743 in combination with nicotinamide (FIG. 2a)) of the same compound?
Answer: The IC50 was 0.41 nM.

Question: And the “increase in cellular sensitivity on loss of PARP-1” value [2]?
Answer: The value was roughly 30 fold.

Question: With `Cc1nc2c(O)cccc2c(=O)[nH]1` [NU1025] as the compound, how does the “cytotoxicity, PARP inhibitor treatment alone” value ([1]; SW620, NU1025 alone (100 μM), versus untreated cells) read?
Answer: The value was “no increased level of cytotoxicity above the untreated cells”.

Question: And the “increased sensitization of cells to ET-743” value [1]?
Answer: The value was 4.8 fold.

Question: What about the “potency as PARP inhibitor relative to nicotinamide” value [3] of the same compound?
Answer: Its value is “up to 1,000 times”.

Question: With `COc1c(C)cc2c(c1O)[C@@H]1[C@@H]3Cc4c(OC(C)=O)c(C)c5c(c4[C@H](CNC(=O)/C=C/c4cccc(C(F)(F)F)c4)N3[C@@H](O)[C@H](C2)N1C)OCO5` [Zalypsis®] as the compound, how does the “increase in cellular sensitivity on loss of PARP-1” value [2] read?
Answer: Its value is 110 fold.

Question: Which results are given for `NC(=O)c1cccnc1` [nicotinamide]?
Answer: inhibition at 10000 µM ([1]; Homo sapiens, SW-620, SW620, nicotinamide alone (10 mM), read-out: cell death, PARP inhibitor treatment alone): ~20%; increased sensitization of cells to ET-743 [1]: 4.9 fold
